These results are taken from publication PMC9574867, “Discovery and Characterization of Synthesized and FDA-Approved Inhibitors of Clostridial and Bacillary Collagenases” (Journal of Medicinal Chemistry, 2022).

Entries after “also recorded” stand apart in the source; their conditions may differ.

For orientation: inhibition means the relative decrease from the control value, in per cent.

The target in one series is ColH-PD (Hathewaya histolytica, UniProt Q46085). The series is classed as biochemical, C. histolyticum.
Chain of ColH-PD (Q46085 331-721 limits assumed): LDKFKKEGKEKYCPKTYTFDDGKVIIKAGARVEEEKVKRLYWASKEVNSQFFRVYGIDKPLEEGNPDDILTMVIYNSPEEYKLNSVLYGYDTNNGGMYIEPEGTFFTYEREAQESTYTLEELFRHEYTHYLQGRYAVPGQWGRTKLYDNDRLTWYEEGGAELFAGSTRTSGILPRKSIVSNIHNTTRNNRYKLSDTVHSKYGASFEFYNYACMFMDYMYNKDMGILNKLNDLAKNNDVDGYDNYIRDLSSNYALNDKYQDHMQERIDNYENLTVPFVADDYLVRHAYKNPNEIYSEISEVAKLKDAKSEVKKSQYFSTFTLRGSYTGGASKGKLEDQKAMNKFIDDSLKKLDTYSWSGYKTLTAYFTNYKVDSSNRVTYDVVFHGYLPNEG
Series [1] addresses T1, ColG-CU (Hathewaya histolytica, UniProt Q9X721). Nature of the series: biochemical. In kind it is biochemical, C. histolyticum. The conditions noted are these: 100 μM; read-out: Percent inhibition of ColG-CU.
The target of series [2] is T1, ColG-CU. The series is classed as biochemical, C. histolyticum. The conditions noted are these: rapid dilution.
The next series has as its target ColA-CU (Bacillus cereus, UniProt Q81BJ6). The series is classed as biochemical, B. cereus. The note with it: rapid dilution.
The subject of series [3] is NHDF cells infected with B. cereus. Nature of the series: NHDF infection model, LDH release. In kind it is cell-based, human. The note with it: 5 h. The protocol:
We further evaluated the effect of the diphosphonate and hydroxamate compounds on cell morphology, the fibrillar collagen content of the ECM, and cell viability in the infection model. […] Above a concentration of 25 μM, they were both able to sustain the cells during infection. The cells stayed attached and maintained their spindle shape (Figures S7 and S8), and above 50 μM, we observed a significant reduction in LDH release, indicating higher cell viability.
NHDF cells (1 × 10^5, Promo Cell C-12302) per well were seeded in 24-well plates (Greiner) with DMEM medium (Gibco) containing 10% (v/v) fetal calf serum (FCS, Gibco) and 1% (v/v) glutamine (Gibco). Prior to the treatment, the cells were cultured at 37 °C for 24 h with 5% CO2. In brain heart infusion (BHI) medium, B. cereus AH187 bacteria were cultivated to a mid-exponential phase. The culture was centrifuged at 4000g for 7 min at RT before being rinsed and diluted in PBS. […] The cell morphology was monitored with a light microscope (Olympus) using a 20X objective. […]
The manufacturer’s procedure was followed to measure the released LDH amount in the supernatant of NHDF cells. […] The absorbance was measured at 490 nm with a Tecan Infinite M200 plate reader (Tecan, Grödig, Austria). The cytotoxicity was calculated relative to the control (no inhibitor).
Background: LDH in the medium is a marker of cell lysis.

The target in series [4] is T2, ColQ1-CU (Bacillus cereus, UniProt B9J3S4). The series is classed as biochemical, B. cereus.
T2 sequence (B9J3S4 94-765 limits assumed): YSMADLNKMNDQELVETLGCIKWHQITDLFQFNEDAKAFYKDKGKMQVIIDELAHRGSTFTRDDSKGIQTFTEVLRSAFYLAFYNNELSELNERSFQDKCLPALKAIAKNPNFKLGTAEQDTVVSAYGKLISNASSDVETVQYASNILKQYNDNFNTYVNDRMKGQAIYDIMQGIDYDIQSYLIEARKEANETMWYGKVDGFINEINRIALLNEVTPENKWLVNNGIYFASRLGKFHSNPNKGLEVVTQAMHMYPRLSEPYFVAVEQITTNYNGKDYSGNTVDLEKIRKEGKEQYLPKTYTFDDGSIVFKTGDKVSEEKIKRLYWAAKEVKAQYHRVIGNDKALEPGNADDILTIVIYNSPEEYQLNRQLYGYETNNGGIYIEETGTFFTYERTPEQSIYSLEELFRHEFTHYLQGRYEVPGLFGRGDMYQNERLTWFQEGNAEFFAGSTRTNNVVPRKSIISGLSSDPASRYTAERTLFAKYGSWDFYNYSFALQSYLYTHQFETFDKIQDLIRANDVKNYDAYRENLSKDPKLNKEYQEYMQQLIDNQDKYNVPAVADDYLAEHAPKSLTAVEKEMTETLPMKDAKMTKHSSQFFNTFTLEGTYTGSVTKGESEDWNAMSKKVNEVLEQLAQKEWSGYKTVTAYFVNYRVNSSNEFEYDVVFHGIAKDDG
Series [5] concerns the target T2, ColQ1-CU. In kind it is binding, B. cereus. The conditions noted are these: intact protein HPLC-MS, overnight treatment.
In series [6] the test system is Galleria mellonella larvae. Nature of the series: Galleria mellonella larvae treated with compound only in PBS. In kind it is in vivo. The note with it: no bacteria. The procedure: Figure 8 Survival analysis of Galleria mellonella larvae treated with Bacillus cereus AH187 with and without 14 and tiludronate disodium. Each curve represents results of three independent experiments; the statistical difference between groups treated with 100, 50, and 25 μM of compound 14 and B. cereus AH187 and with the group treated only with B. cereus AH187 is p < 0.0001, p = 0.0039, and p = 0.0173, respectively. The statistical difference between groups treated with 100 μM tiludronate disodium and with B. cereus AH187 is p = 0.0032 (log-rank test). The survival rate for the larvae treated with compound 14 and tiludronate disodium in PBS was 100%.
G. mellonella larvae were purchased from a fishing store. Injections were carried out using an LA120 syringe pump (Landgraf Laborsysteme, Langenhagen, Germany) equipped with 1 mL Injekt-F tuberculin syringes (B. Braun, Melsungen, Germany) and Sterican 0.30 × […], 30 G × 1.5 needles (B. Braun). The larvae were divided into five groups depending on their treatment: (i) sterile PBS, (ii) no injection, (iii) only compound, (iv) BC AH187 bacterial suspension, and (v) BC AH187 bacterial suspension with compound. Larvae were incubated at 37 °C for 3 days and inspected twice daily. The total larvae used in all three experiments were 40 larvae per group.

T1 sequence (Q9X721 111-786): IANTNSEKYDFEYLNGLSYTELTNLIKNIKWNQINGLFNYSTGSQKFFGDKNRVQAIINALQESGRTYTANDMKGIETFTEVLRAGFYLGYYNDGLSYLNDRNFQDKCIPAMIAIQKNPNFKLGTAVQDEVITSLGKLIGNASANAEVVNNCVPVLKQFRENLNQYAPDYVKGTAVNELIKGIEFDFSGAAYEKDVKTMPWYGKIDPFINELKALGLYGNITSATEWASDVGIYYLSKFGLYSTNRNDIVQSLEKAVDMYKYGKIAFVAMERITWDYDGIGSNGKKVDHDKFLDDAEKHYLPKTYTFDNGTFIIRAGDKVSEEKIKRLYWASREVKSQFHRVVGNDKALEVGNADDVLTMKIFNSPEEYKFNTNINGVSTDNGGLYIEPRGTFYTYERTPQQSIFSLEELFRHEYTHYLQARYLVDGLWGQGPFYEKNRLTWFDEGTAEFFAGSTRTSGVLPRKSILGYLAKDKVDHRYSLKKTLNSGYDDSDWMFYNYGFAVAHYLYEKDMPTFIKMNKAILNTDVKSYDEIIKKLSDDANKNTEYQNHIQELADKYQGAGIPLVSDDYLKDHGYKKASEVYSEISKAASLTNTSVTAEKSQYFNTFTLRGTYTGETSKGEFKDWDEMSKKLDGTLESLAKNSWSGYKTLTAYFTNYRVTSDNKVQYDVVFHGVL
Chain of ColA-CU (Q81BJ6 93-764): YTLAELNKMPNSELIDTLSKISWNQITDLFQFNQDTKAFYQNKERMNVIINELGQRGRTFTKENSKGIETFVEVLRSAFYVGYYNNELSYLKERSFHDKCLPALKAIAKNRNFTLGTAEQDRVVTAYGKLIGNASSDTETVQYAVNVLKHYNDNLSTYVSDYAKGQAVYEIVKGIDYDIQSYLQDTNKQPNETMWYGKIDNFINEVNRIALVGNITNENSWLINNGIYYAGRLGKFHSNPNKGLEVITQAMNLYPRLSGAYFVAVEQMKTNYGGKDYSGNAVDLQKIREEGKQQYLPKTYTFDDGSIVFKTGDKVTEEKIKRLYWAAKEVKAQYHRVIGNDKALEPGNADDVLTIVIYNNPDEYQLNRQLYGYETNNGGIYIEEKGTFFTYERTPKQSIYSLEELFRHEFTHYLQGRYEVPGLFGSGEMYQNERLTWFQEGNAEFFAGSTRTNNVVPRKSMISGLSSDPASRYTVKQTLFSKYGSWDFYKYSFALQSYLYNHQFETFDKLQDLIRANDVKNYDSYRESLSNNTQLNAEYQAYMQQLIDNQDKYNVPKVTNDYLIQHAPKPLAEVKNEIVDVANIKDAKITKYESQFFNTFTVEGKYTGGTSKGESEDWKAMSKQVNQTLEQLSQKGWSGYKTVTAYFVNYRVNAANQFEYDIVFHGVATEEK

Consider `O=P(O)(O)c1nc2cc(Cl)c(Cl)cc2nc1P(=O)(O)O` [Compound 13, (6,7-Dichloroquinoxaline-2,3-diyl)bis(phosphonic acid)], for which the “Reversibility of inhibition, ColH” value at ColH-PD was “reversed compared to ColA”. Further, the inhibition at 100 µM on ColG-CU [1] is 68 ± 4%. The “Reversibility of inhibition, ColG” value on ColG-CU [2] is on record as “rapidly reversible inhibitors”. Besides, the “Reversibility of inhibition, ColA-CU” value on ColA-CU is listed as “only a minimal inhibition”. In addition, in series [3], the “Concentration above which LDH release was significantly reduced” value is listed as “above 50 μM”. Also, at ColQ1-CU [4] (30 min preincubation at 10-fold IC50, 100-fold dilution), the “Residual activity after rapid dilution” value is “less than 9%”. The “Reversibility of inhibition, ColQ1-CU” value on ColQ1-CU [4] (rapid dilution) was “very slowly dissociating reversible binder”. The “Covalent modification of ColQ1-CU” value on ColQ1-CU [5] is listed as “No molecular masses displayed a mass shift indicating a covalently bound inhibitor; also recorded: did not result in a covalent modification”.

Regarding `O=C(Nc1ccc(Cl)c(Cl)c1)c1ccc2nc(P(=O)(O)O)c(P(=O)(O)O)nc2c1` [Compound 14, (6-((3,4-Dichlorophenyl)carbamoyl)quinoxaline-2,3-diyl)bis(phosphonic acid)], the inhibition at 100 µM at ColG-CU [1] turned out to be 72 ± 3%. Also, the “Survival rate of larvae treated with compound in PBS” value in series [6] is reported as 100%. The “Concentration above which LDH release was significantly reduced” value in series [3] is recorded as “above 50 μM”.
